molecular target: Tie-2 (Homo sapiens, UniProt Q02763); assay: Tie-2 tyrosine kinase activity assay (luciferase/luciferin ATP consumption with pEY substrate, or 33P-ATP incorporation); format: biochemical; conditions: human enzyme Tie-2
Protocol: One measure of inhibition is Ki. […] The Ki for a compound is determined from the IC50 based on three assumptions. First, only one compound molecule binds to the enzyme and there is no cooperativity. […] Third, the enzymatic rate of the enzyme-inhibitor complex is zero. The rate data (i.e. compound concentration) are fitted to the equation:
[formula] where V is the observed rate, Vmax, is the rate of the free enzyme, I0 is the inhibitor concentration, E0 is the enzyme concentration, and Kd is the dissociation constant of the enzyme-inhibitor complex.
Tyrosine kinase activity is determined by 1) measurement of kinase-dependent ATP consumption by in the presence of a generic substrate such as […], tyrosine (pEY), by luciferase/luciferin-mediated chemiluminescence or; 2) incorporation of radioactive phosphate derived from ^33P-ATP into a generic substrate which has been adsorbed onto the well surface of polystyrene microtiter plates. Phosphorylated substrate products are quantified by scintillation spectrometry.
Inhibition is indicated as IC50 with following key: A=IC50 less than 50 nM, B=IC50 greater than 50 nM, but less than or equal to 1000 nM, C=IC50 greater than 1000 nM, but less than 10,000 nM, D=IC50 10,000 nM or greater, and “-”=no data available. The abbreviation for human enzyme, Tie-2, is defined as tyrosine kinase with immunoglobulin and EGF repeats.

Tie-2, sequence (Q02763 23-1124): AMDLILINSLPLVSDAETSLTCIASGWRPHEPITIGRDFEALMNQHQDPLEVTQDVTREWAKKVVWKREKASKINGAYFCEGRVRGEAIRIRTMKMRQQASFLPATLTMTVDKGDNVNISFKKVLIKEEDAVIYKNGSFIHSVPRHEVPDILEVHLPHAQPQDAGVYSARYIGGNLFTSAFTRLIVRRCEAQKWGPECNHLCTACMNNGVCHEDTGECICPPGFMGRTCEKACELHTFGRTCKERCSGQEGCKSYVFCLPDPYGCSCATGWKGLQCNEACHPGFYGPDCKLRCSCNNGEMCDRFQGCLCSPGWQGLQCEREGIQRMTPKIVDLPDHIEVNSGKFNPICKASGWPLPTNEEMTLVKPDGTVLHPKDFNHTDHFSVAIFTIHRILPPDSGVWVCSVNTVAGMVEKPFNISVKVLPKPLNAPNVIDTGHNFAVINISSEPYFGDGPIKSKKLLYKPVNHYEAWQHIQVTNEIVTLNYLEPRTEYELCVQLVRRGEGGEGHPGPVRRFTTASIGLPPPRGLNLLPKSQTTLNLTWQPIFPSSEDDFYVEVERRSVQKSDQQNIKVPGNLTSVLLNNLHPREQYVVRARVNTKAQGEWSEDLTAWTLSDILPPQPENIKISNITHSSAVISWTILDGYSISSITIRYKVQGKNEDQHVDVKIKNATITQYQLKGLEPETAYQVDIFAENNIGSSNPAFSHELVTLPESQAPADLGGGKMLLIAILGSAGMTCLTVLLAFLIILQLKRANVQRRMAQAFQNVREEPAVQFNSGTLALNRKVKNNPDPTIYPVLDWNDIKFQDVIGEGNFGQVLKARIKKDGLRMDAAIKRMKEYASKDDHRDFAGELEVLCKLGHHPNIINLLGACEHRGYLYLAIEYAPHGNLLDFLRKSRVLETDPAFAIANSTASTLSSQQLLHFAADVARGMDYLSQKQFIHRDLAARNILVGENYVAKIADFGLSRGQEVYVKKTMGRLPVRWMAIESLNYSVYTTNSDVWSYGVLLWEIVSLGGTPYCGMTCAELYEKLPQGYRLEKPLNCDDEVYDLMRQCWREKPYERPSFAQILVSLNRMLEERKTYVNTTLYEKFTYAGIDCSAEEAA

Structure (SMILES) | IC50 [nM]
O=C(Nc1cc(C(F)(F)F)cc(C(F)(F)F)c1)N1CCN(c2nsnc2OCc2ccncc2)CC1 [Example 2] | < 50
O=C(Nc1cccc(Br)c1)N1CCN(c2nsnc2OCc2ccncc2)CC1 [Example 5] | 1000 to 10000
CCc1cccc(NC(=O)N2CCN(c3nsnc3OCc3ccncc3)CC2)c1 [Example 7] | 50 to 1000
Cc1cc(C)cc(NC(=O)N2CCN(c3nsnc3OCc3ccncc3)CC2)c1 [Example 8] | 50 to 1000
O=C(Nc1cccc(C(F)(F)F)c1)N1CCN(c2nsnc2OCc2ccncc2)CC1 [Example 9] | 50 to 1000
Cc1cc(COc2nsnc2N2CCN(C(=O)Nc3cc(C(F)(F)F)cc(C(F)(F)F)c3)CC2)c2ccccc2n1 [Example 10] | ≥ 10000
CN(C)c1cccc(COc2nsnc2N2CCN(C(=O)Nc3cc(C(F)(F)F)cc(C(F)(F)F)c3)CC2)c1 [Example 11, N-[3,5-bis(trifluoromethyl)phenyl]-4-[4-({[3-(dimethylamino)phenyl]methyl}oxy)-1,2,5-thiadiazol-3-yl]piperazine-1-carboxamide] | ≥ 10000
O=C(Nc1cc(C(F)(F)F)cc(C(F)(F)F)c1)N1CCN(c2nsnc2Oc2ccc3[nH]ccc3c2)CC1 [Example 12] | 50 to 1000
O=C(Nc1cc(C(F)(F)F)cc(C(F)(F)F)c1)N1CCN(c2nsnc2OCc2ccsc2)CC1 [Example 13] | ≥ 10000
O=C(Nc1cc(C(F)(F)F)cc(C(F)(F)F)c1)N1CCN(c2nsnc2OCCN2CCOCC2)CC1 [Example 14] | ≥ 10000
COc1ccc(COc2nsnc2N2CCN(C(=O)Nc3cc(C(F)(F)F)cc(C(F)(F)F)c3)CC2)cc1 [Example 17] | ≥ 10000
O=C(Nc1cc(C(F)(F)F)cc(C(F)(F)F)c1)N1CCN(c2nsnc2OCc2ccoc2)CC1 [Example 20] | ≥ 10000
CC1CN(c2nsnc2OCc2ccncc2)CCN1C(=O)Nc1cc(C(F)(F)F)cc(C(F)(F)F)c1 (stereo not drawn) [Example 22] | 50 to 1000
O=C(Nc1cc(C(F)(F)F)cc(C(F)(F)F)c1)N1CCCN(c2nsnc2OCc2ccncc2)CC1 [Example 23] | 50 to 1000
CC(C)[C@H]1CC[C@H](C)C[C@@H]1OCC(=O)N1CCN(c2nsnc2OCc2ccncc2)CC1 [Example 24] | 1000 to 10000
O=C(NCC1CCN(c2nsnc2OCc2ccncc2)CC1)Nc1cc(C(F)(F)F)cc(C(F)(F)F)c1 [Example 28] | 50 to 1000
O=C(Nc1cc(C(F)(F)F)cc(C(F)(F)F)c1)N1CCN(c2nsnc2OCCCc2cccnc2)CC1 [Example 29, N-[3,5-bis(trifluoromethyl)phenyl]-4-{4-[(3-pyridin-3-ylpropyl)oxy]-1,2,5-thiadiazol-3-yl}piperazine-1-carboxamide] | 1000 to 10000
O=C(O)c1ccc(COc2nsnc2N2CCN(C(=O)Nc3cc(C(F)(F)F)cc(C(F)(F)F)c3)CC2)cc1 [Example 32, 4-[({4-[4-({[3,5-bis(trifluoromethyl)phenyl]amino}carbonyl)piperazin-1-yl]-1,2,5-thiadiazol-3-yl}oxy)methyl]benzoic acid] | 1000 to 10000
O=C(Nc1cc(C(F)(F)F)cc(C(F)(F)F)c1)C1CCN(c2nsnc2OCc2ccncc2)CC1 [Example 36, N-[3,5-bis(trifluoromethyl)phenyl]-1-{4-[(pyridin-4-ylmethyl)oxy]-1,2,5-thiadiazol-3-yl}piperidine-4-carboxamide] | 50 to 1000
O=C(Nc1cccc(C(F)(F)F)c1)C1CCN(c2nsnc2OCc2ccncc2)CC1 [Example 37, 1-{4-[(pyridin-4-ylmethyl)oxy]-1,2,5-thiadiazol-3-yl}-N-[3-(trifluoromethyl)phenyl]piperidine-4-carboxamide] | 50 to 1000

Structure (SMILES) | IC50 [nM]
O=C(Nc1cc(C(F)(F)F)cc(C(F)(F)F)c1)N1CCN(c2nccnc2OCc2ccncc2)CC1 [Example 38, N-[3,5-bis(trifluoromethyl)phenyl]-4-{3-[(pyridin-4-ylmethyl)oxy]pyrazin-2-yl}piperazine-1-carboxamide] | < 50
O=C(Nc1cccc(C(F)(F)F)c1)N1CCN(c2nccnc2OCc2ccncc2)CC1 [Example 39, 4-{3-[(pyridin-4-ylmethyl)oxy]pyrazin-2-yl}-N-[3-(trifluoromethyl)phenyl]piperazine-1-carboxamide] | < 50
CC1CN(c2nsnc2OCc2ccncc2)CCN1C(=O)Nc1cccc(C(F)(F)F)c1 (stereo not drawn) [Example 41, 2-methyl-4-{4-[(pyridin-4-ylmethyl)oxy]-1,2,5-thiadiazol-3-yl}-N-[3-(trifluoromethyl)phenyl]piperazine-1-carboxamide] | 50 to 1000
O=C(Nc1cc(C(F)(F)F)cc(C(F)(F)F)c1)N1CCN(c2nsnc2NCc2ccncc2)CC1 [Example 44, N-[3,5-bis(trifluoromethyl)phenyl]-4-{4-[(pyridin-4-ylmethyl)amino]-1,2,5-thiadiazol-3-yl}piperazine-1-carboxamide] | 1000 to 10000
O=C(Nc1cccc(C(F)(F)F)c1)N1CCCN(c2nsnc2OCc2ccncc2)CC1 [Example 45, 4-{4-[(pyridin-4-ylmethyl)oxy]-1,2,5-thiadiazol-3-yl}-N-[3-(trifluoromethyl)phenyl]-1,4-diazepane-1-carboxamide] | 1000 to 10000
O=C(Nc1cccc(C(F)(F)F)c1)NC1CCN(c2nsnc2OCc2ccncc2)C1 (stereo not drawn) [Example 49, N-(1-{4-[(pyridin-4-ylmethyl)oxy]-1,2,5-thiadiazol-3-yl}pyrrolidin-3-yl)-N′-[3-(trifluoromethyl)phenyl]urea] | 1000 to 10000
CC(C)c1ccc(NC(=O)N2CCN(c3nsnc3OCc3ccncc3)CC2C)cc1 (stereo not drawn) [Example 50, 2-methyl-N-[4-(1-methylethyl)phenyl]-4-{4-[(pyridin-4-ylmethyl)oxy]-1,2,5-thiadiazol-3-yl}piperazine-1-carboxamide] | 1000 to 10000
CSc1cccc(NC(=O)N2CCN(c3nsnc3OCc3ccncc3)CC2C)c1 (stereo not drawn) [Example 51, 2-methyl-N-[3-(methylthio)phenyl]-4-{4-[(pyridin-4-ylmethyl)oxy]-1,2,5-thiadiazol-3-yl}piperazine-1-carboxamide] | 50 to 1000
C[C@@H]1CN(c2nsnc2OCc2ccncc2)CCN1C(=O)Nc1cc(C(F)(F)F)cc(C(F)(F)F)c1 [Example 52, (2R)-N-[3,5-bis(trifluoromethyl)phenyl]-2-methyl-4-{4-[(pyridin-4-ylmethyl)oxy]-1,2,5-thiadiazol-3-yl}piperazine-1-carboxamide] | 50 to 1000
C[C@@H]1CN(c2nsnc2OCc2ccncc2)CCN1C(=O)Nc1cccc(C(F)(F)F)c1 [Example 53, (2R)-2-methyl-4-{4-[(pyridin-4-ylmethyl)oxy]-1,2,5-thiadiazol-3-yl}-N-[3-(trifluoromethyl)phenyl]piperazine-1-carboxamide] | 50 to 1000
C[C@H]1CN(c2nsnc2OCc2ccncc2)CCN1C(=O)Nc1cc(C(F)(F)F)cc(C(F)(F)F)c1 [Example 57, (2S)-N-[3,5-bis(trifluoromethyl)phenyl]-2-methyl-4-{4-[(pyridin-4-ylmethyl)oxy]-1,2,5-thiadiazol-3-yl}piperazine-1-carboxamide] | 50 to 1000
C[C@H]1CN(c2nsnc2OCc2ccncc2)CCN1C(=O)Nc1cccc(C(F)(F)F)c1 [Example 58, (2S)-2-methyl-4-{4-[(pyridin-4-ylmethyl)oxy]-1,2,5-thiadiazol-3-yl}-N-[3-(trifluoromethyl)phenyl]piperazine-1-carboxamide] | 50 to 1000
O=C(Cc1cc(C(F)(F)F)ccc1C(F)(F)F)NC1CCN(c2nsnc2OCc2ccncc2)C1 (stereo not drawn) [Example 60, 2-[2,5-bis(trifluoromethyl)phenyl]-N-(1-{4-[(pyridin-4-ylmethyl)oxy]-1,2,5-thiadiazol-3-yl}pyrrolidin-3-yl)acetamide] | 50 to 1000
CC1CN(c2nsnc2OCc2ccncc2)CCN1C(=O)Cc1cc(C(F)(F)F)ccc1C(F)(F)F (stereo not drawn) [Example 61, 1-{[2,5-bis(trifluoromethyl)phenyl]acetyl}-2-methyl-4-{4-[(pyridin-4-ylmethyl)oxy]-1,2,5-thiadiazol-3-yl}piperazine] | 50 to 1000
CC1CN(c2nccnc2OCc2ccncc2)CCN1C(=O)Nc1cc(C(F)(F)F)cc(C(F)(F)F)c1 (stereo not drawn) [Example 62, N-[3,5-bis(trifluoromethyl)phenyl]-2-methyl-4-{3-[(pyridin-4-ylmethyl)oxy]pyrazin-2-yl}piperazine-1-carboxamide] | < 50
CC1CN(c2nccnc2OCc2ccncc2)CCN1C(=O)Nc1cccc(C(F)(F)F)c1 (stereo not drawn) [Example 63, 2-methyl-4-{3-[(pyridin-4-ylmethyl)oxy]pyrazin-2-yl}-N-[3-(trifluoromethyl)phenyl]piperazine-1-carboxamide] | 50 to 1000
CC1CN(c2nccnc2OCc2ccncc2)CC(C)N1C(=O)Nc1cc(C(F)(F)F)cc(C(F)(F)F)c1 (stereo not drawn) [Example 64, N-[3,5-bis(trifluoromethyl)phenyl]-2,6-dimethyl-4-{3-[(pyridin-4-ylmethyl)oxy]pyrazin-2-yl}piperazine-1-carboxamide] | 50 to 1000
CC1CN(c2nccnc2OCc2ccncc2)CC(C)N1C(=O)Nc1cccc(C(F)(F)F)c1 (stereo not drawn) [Example 65, 2,6-dimethyl-4-{3-[(pyridin-4-ylmethyl)oxy]pyrazin-2-yl}-N-[3-(trifluoromethyl)phenyl]piperazine-1-carboxamide] | 50 to 1000
O=C(Nc1cccc(C(F)(F)F)c1)NC1CCN(c2nccnc2OCc2ccncc2)C1 (stereo not drawn) [Example 66, N-(1-{3-[(pyridin-4-ylmethyl)oxy]pyrazin-2-yl}pyrrolidin-3-yl)-N′-[3-(trifluoromethyl)phenyl]urea] | 50 to 1000

From patent US8013156B2 (Exelixis, Inc., priority 2003, dated 2011)
